Laboratory results taken from PubChem BioAssay (NCI).
Values joined by “and” are separate entries in the source; they are usually repeats but may differ in a detail not shown here. Equal entries are not always repeated.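 Test compounds were applied to cells in 96-well plates for 48 hours at 5 doses. Here, GI50 denotes the concentration required for 50% inhibition of growth. TGI marks complete inhibition of growth.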

Tests used:
Experiment in all cases: NCI tumour cell line growth inhibition, 48 h
DLD-1 colon = tested on: DLD-1 colon
LXFL 529 NSCLC = tested on: LXFL 529 NSCLC
KM20L2 colon = tested on: KM20L2 colon
HOP-18 NSCLC = tested on: HOP-18 NSCLC
M19-MEL melanoma = tested on: M19-MEL melanoma
XF 498 CNS = tested on: XF 498 CNS
SNB-78 CNS = tested on: SNB-78 CNS
P388 leukemia = tested on: P388 leukemia
SN12K1 renal = tested on: SN12K1 renal
P388/ADR leukemia = tested on: P388/ADR leukemia

**Q.** `NC(CS)C(=O)NCCNc1ccc(NCCNC(=O)C(N)CS)c2c1C(=O)c1c(O)ccc(O)c1C2=O` (stereo not drawn) was tested. Which GI50 (DLD-1 colon) did it give?
**A.** 0.0638 µM

**Q.** And the TGI (DLD-1 colon)?
**A.** 1.03 µM and 0.762 µM

**Q.** And the GI50 (LXFL 529 NSCLC)?
**A.** 0.0673 µM

**Q.** What about the TGI (LXFL 529 NSCLC) of the same molecule?
**A.** 0.927 µM and 0.631 µM

**Q.** What about the GI50 (KM20L2 colon) of the same molecule?
**A.** 0.195 µM

**Q.** And the TGI (KM20L2 colon)?
**A.** 1.49 µM and 1.37 µM

**Q.** What about the GI50 (HOP-18 NSCLC) of the same molecule?
**A.** 0.0307 µM

**Q.** What about the TGI (HOP-18 NSCLC) of the same molecule?
**A.** 3.9 µM and 0.484 µM

**Q.** What about the GI50 (M19-MEL melanoma) of the same molecule?
**A.** 0.138 µM

**Q.** What about the TGI (M19-MEL melanoma) of the same molecule?
**A.** 0.863 µM and 1.01 µM

**Q.** And the TGI (XF 498 CNS)?
**A.** 0.463 µM

**Q.** Which TGI (SNB-78 CNS) does the source give for `C[C@]12CCC(=O)C=C1CC[C@@H]1C2CC[C@@]2(C)C1CC[C@@H]2OC(=O)C12OC1CCC2=O` (stereo partly drawn) here?
**A.** 33.9 µM

**Q.** And the TGI (LXFL 529 NSCLC)?
**A.** 28 µM

**Q.** And the TGI (KM20L2 colon)?
**A.** 34.3 µM

**Q.** And the TGI (HOP-18 NSCLC)?
**A.** 31.7 µM

**Q.** And the TGI (M19-MEL melanoma)?
**A.** 30.3 µM

**Q.** What about the TGI (XF 498 CNS) of the same molecule?
**A.** 27.9 µM

**Q.** Which TGI (SNB-78 CNS) does the source give for `Cc1cc(=O)[nH]c(NNC(C#N)c2ccc(N(C)C)cc2)n1` (stereo not drawn) here?
**A.** > 100 µM

**Q.** And the TGI (DLD-1 colon)?
**A.** > 100 µM

**Q.** And the TGI (KM20L2 colon)?
**A.** > 100 µM

**Q.** What about the TGI (HOP-18 NSCLC) of the same molecule?
**A.** > 100 µM

**Q.** What about the TGI (M19-MEL melanoma) of the same molecule?
**A.** > 100 µM

**Q.** Which TGI (SNB-78 CNS) does the source give for `Nc1ccn(CCCC(c2ccccc2)P(=O)(O)O)c(=O)n1` (stereo not drawn) here?
**A.** > 100 µM

**Q.** And the TGI (DLD-1 colon)?
**A.** > 100 µM

**Q.** And the TGI (LXFL 529 NSCLC)?
**A.** > 100 µM

**Q.** And the TGI (KM20L2 colon)?
**A.** > 100 µM

**Q.** And the TGI (HOP-18 NSCLC)?
**A.** > 100 µM

**Q.** And the TGI (M19-MEL melanoma)?
**A.** > 100 µM

**Q.** Which results are given for `COCC1N=C(c2cc(OC)c(OC)c(OC)c2-c2cc3c(cc2[C@@H](C)O)OCO3)O[C@H]1c1ccccc1` (stereo partly drawn)?
**A.** TGI (P388 leukemia): > 100 µM; TGI (SNB-78 CNS): > 87.4 µM; TGI (DLD-1 colon): > 100 µM; TGI (SN12K1 renal): > 100 µM; TGI (P388/ADR leukemia): > 100 µM; TGI (KM20L2 colon): > 100 µM; TGI (HOP-18 NSCLC): > 100 µM; TGI (M19-MEL melanoma): > 100 µM

**Q.** What does the source list for `CN(C)CCNC(=O)c1cccc2[nH]c(-c3ccc(Cl)cc3)nc12`?
**A.** TGI (P388 leukemia): 14.5 µM; TGI (SNB-78 CNS): 37.7 µM; TGI (DLD-1 colon): 24.5 µM; TGI (SN12K1 renal): 14.8 µM; TGI (P388/ADR leukemia): 18.4 µM; TGI (KM20L2 colon): 18.6 µM; TGI (HOP-18 NSCLC): 61.1 µM; TGI (M19-MEL melanoma): 19.7 µM; TGI (XF 498 CNS): 17.6 µM

**Q.** `CC(=O)Nc1ccc(C(=O)n2[nH]c(C)c(/C=C3\C(=O)C=Cc4ccccc43)c2=O)cc1` was tested. Which TGI (SNB-78 CNS) did it give?
**A.** > 100 µM

**Q.** What about the TGI (DLD-1 colon) of the same molecule?
**A.** > 100 µM

**Q.** What about the TGI (HOP-18 NSCLC) of the same molecule?
**A.** > 100 µM

**Q.** And the TGI (M19-MEL melanoma)?
**A.** > 100 µM

**Q.** What about the TGI (XF 498 CNS) of the same molecule?
**A.** > 100 µM

**Q.** With `COc1cccc2c1C(=O)c1c(O)c3c(c(O)c1C2=O)CC(O)(C(C)=O)CC3O` (stereo not drawn) as the molecule, how does the TGI (P388 leukemia) read?
**A.** 9.69 µM

**Q.** And the TGI (SNB-78 CNS)?
**A.** 48 µM

**Q.** What about the TGI (DLD-1 colon) of the same molecule?
**A.** 40.9 µM

**Q.** What about the TGI (SN12K1 renal) of the same molecule?
**A.** 10.5 µM

**Q.** What about the TGI (P388/ADR leukemia) of the same molecule?
**A.** 9.23 µM

**Q.** What about the TGI (KM20L2 colon) of the same molecule?
**A.** 48.2 µM

**Q.** What about the TGI (HOP-18 NSCLC) of the same molecule?
**A.** 41.5 µM

**Q.** What about the TGI (M19-MEL melanoma) of the same molecule?
**A.** 15.7 µM

**Q.** And the TGI (XF 498 CNS)?
**A.** 1.31 µM

**Q.** How did the TGI (SNB-78 CNS) turn out when `Brc1ccc(C[N+]23CN4CN(CN(C4)C2)C3)cc1` was run?
**A.** > 100 µM

**Q.** And the TGI (KM20L2 colon)?
**A.** > 100 µM

**Q.** What about the TGI (M19-MEL melanoma) of the same molecule?
**A.** > 100 µM

**Q.** With `O=P(Nc1cccc(Cl)c1)(Oc1ccccc1)N(CCCl)CCCl` (stereo not drawn) as the molecule, how does the TGI (SNB-78 CNS) read?
**A.** 43.8 µM

**Q.** What about the TGI (DLD-1 colon) of the same molecule?
**A.** 30.5 µM

**Q.** What about the TGI (LXFL 529 NSCLC) of the same molecule?
**A.** 24.6 µM

**Q.** And the TGI (KM20L2 colon)?
**A.** 26.7 µM

**Q.** What about the TGI (HOP-18 NSCLC) of the same molecule?
**A.** 47.2 µM

**Q.** And the TGI (M19-MEL melanoma)?
**A.** 32.8 µM
